From ChEMBL document CHEMBL3352096, “New 9,19-cycloartenol glycosides isolated from the roots of Cimicifuga simplex and their anti-inflammatory effects” (Bioorg Med Chem Lett, 2014)
Active and inactive are the calls of the source.

Tests used:
Type in all cases: functional, cell-based
[1] = tested on: RAW; experiment: Antiinflammatory activity against mouse RAW cells assessed as inhibition of LPS-induced IL-23 production at 10 uM by Q-PCR analysis
[2] = tested on: RAW; experiment: Antiinflammatory activity against mouse RAW cells assessed as inhibition of LPS-induced TNFalpha production at 10 uM by Q-PCR analysis
[3] = tested on: RAW; experiment: Antiinflammatory activity against mouse RAW cells assessed as inhibition of LPS-induced IL-6 production at 10 uM by Q-PCR analysis

Measured: inhibition

CC(=O)O[C@@H]1C[C@@]23C[C@@]24CC[C@H](O[C@@H]2OC[C@@H](O)[C@H](O)[C@H]2O)C(C)(C)[C@@H]4CC=C3[C@]2(C)C[C@]3(O)O[C@H](C(=O)[C@@H]4OC4(C)C)[C@@H](C)[C@@H]3[C@@]12C
active: [1] | [2] | [3]

CC(=O)O[C@@H]1C[C@@]23C[C@@]24CC[C@H](O[C@@H]2O[C@H](CO)[C@H](O)[C@H](O)[C@H]2O)C(C)(C)[C@@H]4CC[C@H]3[C@]2(C)C[C@]3(O)O[C@H](C(=O)[C@@H]4OC4(C)C)[C@@H](C)[C@@H]3[C@@]12C
active: [1] | [2] | [3]
